Columns and labels:
[1] = molecular target: T1, human PTP1B (Homo sapiens, UniProt P18031); assay: PTP1B inhibition assay (pNPP substrate, UV absorption); format: biochemical; details: for inhibition at 10 µM: PTP1B inhibition at 10 μM, performed in triplicate
T1 construct: purchased Sigma
T1 sequence (P18031 1-435): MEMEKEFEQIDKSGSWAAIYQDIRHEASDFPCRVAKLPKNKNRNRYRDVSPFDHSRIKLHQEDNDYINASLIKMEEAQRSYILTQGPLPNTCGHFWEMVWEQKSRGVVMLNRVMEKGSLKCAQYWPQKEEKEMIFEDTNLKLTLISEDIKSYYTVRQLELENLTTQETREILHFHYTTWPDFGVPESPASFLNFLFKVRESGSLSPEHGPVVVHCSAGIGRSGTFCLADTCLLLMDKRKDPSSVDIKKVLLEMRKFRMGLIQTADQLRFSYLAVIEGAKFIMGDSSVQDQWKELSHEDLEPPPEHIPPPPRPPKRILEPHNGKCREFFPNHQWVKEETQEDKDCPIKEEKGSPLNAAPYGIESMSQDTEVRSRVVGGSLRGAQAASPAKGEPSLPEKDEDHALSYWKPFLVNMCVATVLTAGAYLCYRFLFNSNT
Procedure: The inhibitory assay was performed using human PTP1B (purchased from Sigma) and p-nitrophenylphosphate (pNPP) as substrate by UV absorption. 400 nmol pNPP were dissolved in H2O and 48 μL of the solution was added to a 100 μL reaction. The indicated amount of synthetic compounds was diluted in DMSO at a concentration of 5 mM. The PTP1B was diluted in pH 7.2 buffer contained 50 mM HEPES, 3 mM dithiothreitol, 2 mM EDTA and 100 mM NaCl. About 50 μL PTP1B dilution was added, and the mixture incubated at 37 °C for 30 min. 1N NaOH was added to terminate the reaction. UV–Vis absorption was detected at 410 nm using a Tecan Infinite M1000 plate reader.

[2] = tested on: PTP1B; design: method as in PMID 20964318; details: cited from earlier work
[3] = tested on: HepG2 cells; assay: Cell viability in the MTT assay; format: cell-based, human; details: 40 μM compound, 24 h
Procedure: Cell viability in the MTT assay
The toxicities of the compounds were evaluated by (3-(4, 5-dimethylthiazolyl-2)-2, 5-diphenyltetrazolium bromide) test. HepG2 cells were routinely grown in Dulbecco's Modified Eagle Medium (DMEM) supplemented with 10% (v/v) fetal bovine serum, streptomycin ([…]), and penicillin (100U/mL), in a humidified atmosphere of 95% air, 5% CO2 at 37°C. HepG2 cells were planked in a 96 well plate with a concentration of 1×10^4 cells/well and cultured in 37°C and 5%CO2 for 24 h. Then HepG2 cells were treated with 40 μM of the synthetic compound. HepG2 cells untreated were used as control. HepG2 cells were cultured in 37℃ and 5%CO2 for 24 h, the old medium was carefully removed and were cultured for another 4 h in MTT (0.5%) containing DMEM, then the medium was carefully removed. 150 µL/well dimethyl sulfoxide was added and oscillated gently to make crystal dissolved. The absorbance at 560 nm was measured using a microplate reader. The cell […]
Fig. S1. Cell viability in the MTT assay.
(1 picture or pasted object on this page, not shown here)

[4] = tested on: NIDDM mice; format: in vivo; details: for Antihyperglycaemic effect (plasma glucose): male Kunming mice, 100 mg/kg intraperitoneally, glucose at 0-4 h, n = 8
Procedure: The antihyperglycaemic effect of the compounds 15, 25 and C10a were evaluated on non-insulin dependent diabetes mellitus (NIDDM) mice. Nicotinamide and streptozotocin were administrated intraperitoneally to induce hyperglycaemia and the plasma glucose of mice raised over 4.5 mmol/L[45].
Figure 5. The antihyperglycaemic effect in NIDDM mice (n = 8). […] M group: NIDDM mice were treated with saline alone. Y group: NIDDM mice were treated with rosiglitazone.
During the experiment, the male Kunming mice with 25–30 g body weight were fasted but received water prior to induction of diabetes. 110 mg/kg of nicotinamide and 65 mg/kg of streptozotocin (Macklin in Biochemical Technology Co., Ltd., Shanghai, China) were dissolved in pH 4.5 citrate buffer and intraperitoneally administrated to induce NIDDM mice model. The mice were intraperitoneally administered with a compound or rosiglitazone (100 mg/kg) dissolved in saline containing 1% DMSO and 10% Tween 80. Hyperglycaemia was confirmed by a plasma glucose increase of more than 4.5 mmol/L measured by a blood glucose metre (Sinocare GA-3, Changsha, China). Glucose concentrations from the tail of the mice were measured at 0, 0.5, 1, 2, 3 and 4 h by the blood glucose metre. Calculate the percentage of blood glucose by using the following formula: variation of glycaemia% = (AX − A0)/A0 × 100% (AX: blood glucose at selected time; A0: initial blood glucose).

[5] = tested on: insulin-resistant HepG2 cells; assay: Glucose uptake / glucose consumption in insulin-resistant HepG2 cells; format: cell-based, human; details: HepG2 induced with 1.5 × 10^−5 mmol insulin for 36 h; compound 40 μM or rosiglitazone 10 μM for 24 h; glucose oxidase method
Procedure: To assess the insulin sensitisation, the cellular effect of these compounds on insulin-resistant human hepatoma HepG2 cells was performed. The concentration of insulin and induction time were screened to induce insulin resistance in HepG2 cells according to the reported method[41]^,[42] with some modification. As shown in Figure 4(A), treatment with above 1 × 10^−5 mmol of insulin reduced glucose uptake, whereas treatment with 6 × 10^−6 mmol of insulin enhanced glucose uptake. […] As shown in Figure 4(B), insulin resistance was induced in HepG2 cells at 36 h, and rosiglitazone can decrease the insulin resistance. […]
Figure 4. […] After incubation, glucose content in the culture medium was measured by glucose oxidase method. […]
HepG2 cells were grown in DMEM with 10% foetal bovine serum, […] of streptomycin, and 100 U/mL of penicillin, in a humidified atmosphere of 5% CO2 at 37 °C. […] After cultivation, the glucose content was determined by the glucose oxidase method (the glucose analysis kit was purchased from Rongsheng Biopharmaceutical Co., Ltd., Shanghai, China). […] The absorbance was measured at 506 nm using a microplate reader (SpectraMax i3x, Molecular Devices). The residual glucose concentration is expressed as AX/A0 × 5.55 mmol/L (AX: OD value of sample; A0: OD value of glucose standard solution).

Structure (SMILES): CC(C)C1=CC2=CC[C@@H]3[C@](C)(CCC[C@@]3(C)C(=O)O)[C@H]2CC1 [Compound 1, abietic acid]
- inhibition at 10 µM [1]: 35%

Structure (SMILES): CC(C)(O)c1ccc2c(c1)CC[C@H]1[C@](C)(C(=O)O)CCC[C@]21C [Compound 3, 15-Hydroxydehydroabieta-18-oic acid]
- melting point: 92 to 93 °C
- inhibition at 10 µM [1]: 19%

Structure (SMILES): CCOC(=O)[C@]1(C)CCC[C@]2(C)c3ccc(C(C)(C)O)cc3CCC12 (stereo partly drawn) [Compound 4a, Ethyl 15-hydroxydehydroabietate]
- melting point: 51 to 52 °C
- inhibition at 10 µM [1]: 4%

Structure (SMILES): CC(C)(O)c1ccc2c(c1)CCC1[C@](C)(CO)CCC[C@]21C (stereo partly drawn) [Compound 5, 1-Hydroxylmethyl-15-hydroxydehydroabietate]
- inhibition at 10 µM [1]: 0%

Structure (SMILES): C[C@@]1(C(=O)O)CCC[C@]2(C)c3ccc(O)cc3CCC12 (stereo partly drawn) [Compound 7, 13-hydroxy-8,11,13-podocarpatriene-1-carboxylic acid]
- melting point: 101 to 102 °C
- inhibition at 10 µM [1]: 1%

Structure (SMILES): CC(C)C1=CC2=CCC3C(C)(CO)CCCC3(C)C2CC1 (stereo not drawn) [Compound 9]
- inhibition at 10 µM [1]: 3%

Structure (SMILES): Cc1ccc(S(=O)(=O)OCC2(C)CCCC3(C)C4CCC(C(C)C)=CC4=CCC23)cc1 (stereo not drawn) [Compound 10]
- melting point: 67 to 68 °C
- inhibition at 10 µM [1]: 2%

Structure (SMILES): CC(C)C1=CC2=CCC3C(C)(C)CCCC3(C)C2CC1 (stereo not drawn) [Compound 11]
- inhibition at 10 µM [1]: 0%

Structure (SMILES): CC(C)(O)c1ccc2c(c1)CCC1C(C)(C)CCCC21C (stereo not drawn) [Compound 13, 15-Hydroxydehydroabietane]
- inhibition at 10 µM [1]: 22%

Structure (SMILES): CC1(C)CCCC2(C)c3ccc(O)cc3CCC12 (stereo not drawn) [Compound 14, 13-Hydroxy-8,11,13-podocarpatriene]
- melting point: 145 to 146 °C
- inhibition at 10 µM [1]: 15%

Structure (SMILES): C[C@@]1(C(=O)O)CCC[C@]2(C)c3ccc(OCCOC(=O)c4ccccc4C(=O)O)cc3CCC12 (stereo partly drawn) [Compound 15]
- melting point: 72 to 73 °C

Structure (SMILES): C[C@@]1(C(=O)O)CCC[C@]2(C)c3ccc(OCCOC(=O)c4ccccc4)cc3CCC12 (stereo partly drawn) [Compound 25]
- melting point: 138 to 139 °C

Structure (SMILES): C[C@@]1(C(=O)O)CCC[C@]2(C)c3ccc(OCCOC(=O)c4ccccc4N)cc3CCC12 (stereo partly drawn) [Compound 28]
- melting point: 126 to 127 °C

Structure (SMILES): C[C@@]1(C(=O)O)CCC[C@]2(C)c3ccc(OCCOC(=O)c4ccc5cc(C(=O)O)ccc5c4)cc3CCC12 (stereo partly drawn) [Compound 34]
- melting point: 189 to 190 °C

Structure (SMILES): CC1(C)CCC2(COC(=O)c3ccccc3C(=O)O)CCC3(C)C(=CCC4C5(C)CCC(=O)C(C)(C)C5CCC43C)C2C1 (stereo not drawn) [Compound C10a]
- IC50 ([2]; previous work, read-out: PTP1B inhibition IC50): 3.12 µM
- PTP1B inhibition, fold more than the parent compound OA ([2]; versus OA): 7.6 fold
- IC50 ([1]; values from the text, quantity type not printed there (Table 2 is an image), read-out: PTP1B enzymatic inhibitory activities): 3.1 µM
- Cytotoxicity [3]: considerable cytotoxicity and High
- Antihyperglycaemic effect (plasma glucose) [4]: showed the antihyperglycaemic effect
- Acute toxicity observations in treated mice ([4]; mouse, in vivo, ip): hydroabdomen, thrombus and tail necrosis

Structure (SMILES): CN(CCOc1ccc(CC2SC(=O)NC2=O)cc1)c1ccccn1 (stereo not drawn) [rosiglitazone]
- Effect on glucose consumption / insulin-stimulated glucose uptake [5]: significantly decrease the insulin resistance and improve the glucose uptake
- Antihyperglycaemic effect (plasma glucose) [4]: significant antihyperglycaemic effect after 1 h

Reference: publication PMC6882489, “Design and synthesis of tricyclic terpenoid derivatives as novel PTP1B inhibitors with improved pharmacological property and in vivo antihyperglycaemic efficacy” (Journal of Enzyme Inhibition and Medicinal Chemistry, 2019)
